Earlier results, collected in publication PMC11643554, “Synthesis, Cytotoxicity and Antiproliferative Effect of New Pyrrole Hydrazones” (Molecules, 2024).

Test system: melanoma cells
Set-up: method as in PMID 25524552, PMID 29364157
Details: standard cytostatics used in chemotherapy, compared with 1C in SH-4 melanoma cells; cited from earlier work
For `Cn1nnc2c(C(N)=O)ncn2c1=O` [Temozolomide], the IC50 is given as 50 µM.
For `N.N.O=C([O-])C1(C(=O)[O-])CCC1.[Pt+2]` [Carboplatin], the IC50 is given as 18.2 µM.
For `CN(C)C(=O)c1cc2cnc(Nc3ccc(N4CCNCC4)cn3)nc2n1C1CCCC1` [Ribociclib], the IC50 is listed as 35 µM.
